Key:
Type in all cases: in vivo, mice
β-cells = assay: β-cell elimination and β-cell mass after alloxan injection, with or without PDL
Description: (§1) Six- to ten-week old C57/B6 or ICR (Institute of Cancer Research) mice (Harlan Sprague Dawley, Inc.; Placentia, Calif., USA) were injected intravenously with Alloxan (Sigma Aldrich, St. Louis, Mo., USA) at 90 mg/kg. PDL was conducted essentially as described with the following minor modifications. Approximately 50% of the pancreas (the head) remained proximal to the ligation. For the mice receiving PDL plus A, PDL was performed 30 minutes after alloxan injection. Only mice with a blood sugar greater than 500 mg/dl (checked 48 hours after alloxan injection) were selected for experiments. Those mice were injected subcutaneously once daily with insulin glargine (Sanofi-Aventis, Paris, France).
Quantitation of β-cell Mass—β-cell mass was calculated as the relative β-cell area multiplied by pancreatic weight. For the quantitative analysis of insulin (+) cell area, we studied sections spaced 100 lm apart from each other from the tail of the pancreas per mouse. These sections were incubated with antisera to insulin (1:200, rabbit, Santa Cruz Biotechnology, Santa Cruz, Calif., USA) and the bound antibody was visualized by DAB (3,30-Diaminobenzidine) (Vector Laboratories, Burlingame, Calif., USA). The nuclei were stained by Hematoxylin (Surgipath, Richmond, Ill., USA). All slides were scanned and analyzed by using the Aperio ScanScope XT system (version 10, Aperio Technologies, Vista, Calif.).

[1] = Mortality and glycemia following PDL plus alloxan
Description: as §1
The initial insulin dose was 1 unit per mouse (around […] in weight). If hyperglycemia was not controlled at that dose, it was raised gradually until diabetes was controlled. Even with careful management of diabetes, the mortality following PDL plus alloxan was high, around 50%.

[2] = tested on: insulin-positive and glucagon-positive cells of the pancreas; assay: Immunohistochemical marker quantification in pancreas after PDL plus alloxan
Description: as §1
Immunohistochemical Staining—Tissue was fixed in 4% formaldehyde for 6 hours at 4° C., washed in PBS (Phosphate buffered saline), followed by overnight in 30% sucrose at 4° C., then embedded in OCT (Optimal Cutting Temperature) compound and frozen at […]. Cryosections of 5 um thickness were incubated with antisera specific for insulin (1/200, guinea pig, USBIO, Swampscott, Mass., USA), insulin (1/200, rabbit, Santa Cruz Biotechnology, Santa Cruz, Calif., USA), glucagon (1/2,000, mouse, Sigma-Aldrich, St. Louis, Mo., USA), glucagon (1/50, rabbit, Abcam, Cambridge, Mass., USA), cytokeratin (Wide Spectrum Screening; 1/500, rabbit, DakoCytomation, Glostrup, Denmark), somatostatin (1/200, goat, Santa Cruz Biotechnology, Santa Cruz, Calif., USA), KI67 (1/50, mouse, BD Pharmingen, San Diego, Calif., USA), MafA (1/100, rabbit, Bethyl Laboratories, Montgomery, Tex., USA), MafB (1/100, rabbit, Bethyl Laboratories, Montgomery, Tex., USA), PDX1 (1/2,000, goat, Abcam, Cambridge, Mass., USA), Nkx6.1 (1/1,000, mouse, Beta Cell Biology Consortium, Nashville, Tenn., USA), 5-bromodeoxyuridine (BrdU; mouse, GE healthcare, Piscataway, N.J., USA), and C-peptide (1/100, rabbit, Cell Signaling, Danvers, Mass., USA). Secondary antibodies for detection of guinea pig, rabbit, goat, or mouse antibodies were labeled with: Alexa Fluor 488 (Invitrogen, Carlsbad, Calif., USA), Rhodamine Red (Jackson ImmunoResearch Laboratories, West Grove, Pa., USA), Cy5 (Jackson ImmunoResearch Laboratories, West Grove, Pa., USA). Nuclei were visualized with DAPI (40,6-diamidino-2-phenylindole) (Sigma Aldrich, St. Louis, Mo., USA).
Image and Statistical Analysis—All images were acquired by confocal scanning microscopy (Radiance 2100/AGR-3Q BioRad Multi-photon Laser Point Scanning Confocal Microscope). Images were processed with Image J software. The colocalization patterns in FIG. 4, FIGS. 18 and 19 were determined by the colocalization threshold algorithm in WCIF image J. Confocal z stacks were captured at 0.5 lm increments. Three dimensional reconstructions and measurements were performed by using Volocity software (version 5.3). Statistical significance of cell-specific changes in controls versus experimental groups was calculated by an unpaired Student's t-test. We considered p-values below 0.05 as statistically significant. For all statistical analysis, Graphpad Prism 5 was used. All results are expressed as mean±SD.

[3] = 14 days following alloxan plus PDL
[4] = seven days following PDL plus alloxan

For O=C1NC(=O)C(=O)C(=O)N1 [alloxan], the “residual β-cells, of pre-existing β-cells” value (β-cells; after alloxan) was “less than 1%”, the “pre-existing β-cells eliminated” value (β-cells; alloxan injection, by 3 days after injection) was 99% and the β-cell regeneration (β-cells; alloxan treatment alone, two weeks later) was “no evidence of β-cell regeneration”. For the same compound, the “change in β-cell mass” value (β-cells; alloxan, between 3 and 14 days after injection) was “no change in the β-cell mass”, the β-cells eliminated (β-cells; following PDL plus alloxan) was “greater than 99%” and the normoglycemia ([1]; PDL plus alloxan) was “did not achieve normoglycemia”. For the same compound, the mortality ([1]; following PDL plus alloxan, with insulin glargine management of diabetes) was “around 50%”, the “insulin-positive cells coexpressing glucagon” value ([2]; 1 week following PDL plus alloxan) was 58% and the “frequency of replicating insulin-positive cells (Ki67)” value (“frequency” below) ([2]; 3 days following alloxan plus PDL) was 0.98%. For the same compound, the “replication rate of glucagon-positive cells” value ([2]; 7 days following PDL plus alloxan) was 5%, the “insulin-positive cells coexpressing glucagon” value ([2]; 14 days following PDL plus alloxan) was 21% and the “β-cells expressing MafA” value [2, 3] was 63%. The “β-cells expressing MafB” value [2, 3] was 22%, the “α-cells expressing PDX1” value ([2]; PDL plus alloxan, within 1 week) was 11% and the “frequency” value ([2]; day 7 following PDL plus alloxan) was 6%. The “frequency” value ([2]; day 14 following PDL plus alloxan) was “decreased to basal levels”, the “insulin positive cells expressing MafA” value [2, 4] was 26% and the “insulin positive cells expressing MafB” value [2, 4] was 64%.

From US20120270890A1, “Methods of Pancreatic Beta Cell Regeneration” (priority 2011, published 2012)
